The source made the active and inactive calls. No cut-off for these calls is given here.
How the values were obtained:
[1] = system: LN-229-Luc; assay: Antitumor activity against human Ln-229-Luc cells xenografted in BALB/c nude mouse assessed as increase in overall survival time at 45 mg/kg, po administered once a day and measured after 3 to 31 days; assay type: functional, organism-based; settings: time 3-31 day
[2] = system: U-251; assay: Inhibition of sphere formation in human U-251MG cells assessed as fold reduction in sphere initiating frequency at 1 uM incubated for 10 days by microscopic analysis relative to control; assay type: functional; settings: time 10 day
[3] = system: Hs 683; assay: Inhibition of sphere formation in human Hs 683 cells assessed as fold reduction in sphere initiating frequency at 1 uM incubated for 10 days by microscopic analysis relative to control; assay type: functional; settings: time 10 day
[4] = Toxicity in female C57BL/6 mouse assessed as change in cellular structure of liver at 45 mg/kg, po administered once a day for 2 weeks by H and E staining based analysis; assay type: organism-based; settings: in vivo, 336 h
[5] = system: H4; assay: Inhibition of colony formation in human H4 cells assessed as reduction in number of cell clones treated on day 1 and measured after 14 days by crystal violet staining based microscopic analysis; assay type: functional; settings: dose 0.625-5 µM, time 14.0 day
[6] = system: U-251; assay: Inhibition of sphere formation in human U-251MG cells at 1 uM measured after 10 days in well containing 1000 cells by microscopic analysis; assay type: functional, cell-based; settings: time 10.0 day
[7] = system: H4; assay: Inhibition of sphere formation in human H4 cells at 1 uM measured after 10 days in well containing 10000 cells by microscopic analysis; assay type: functional, cell-based; settings: time 10.0 day
[8] = system: U-251; assay: Inhibition of sphere formation in human U-251MG cells at 2 uM measured after 10 days in well containing 1 cells by microscopic analysis; assay type: functional, cell-based; settings: time 10.0 day
[9] = Drug concentration in female Sprague-Dawley rat liver at 45 mg/kg, po measured after 8 hrs by LC-MS/MS analysis; assay type: ADME, organism-based; settings: read-out: Ct
[10] = system: Hs 683; assay: Inhibition of colony formation in human Hs 683 cells assessed as reduction in colony area at 5 uM treated on day 1 and measured after 14 days by crystal violet staining based microscopic analysis relative to control; assay type: functional; settings: Hs 683, 336 h, time 14 day
[11] = system: LN-229; assay: Antiproliferative activity against human LN-229 cells assessed as inhibition of cell growth measured after 72 hrs by CCK-8 assay; assay type: functional, cell-based; settings: LN-229, 72 h
[12] = system: Hs 683; assay: Inhibition of sphere formation in human Hs 683 cells at 8 uM measured after 10 days in well containing 1 cells by microscopic analysis; assay type: functional, cell-based; settings: time 10.0 day
[13] = system: Hs 683; assay: Inhibition of sphere formation in human Hs 683 cells incubated for 168 hrs by microscopic analysis; assay type: functional, cell-based; settings: Hs 683, 168 h
[14] = system: H4; assay: Inhibition of sphere formation in human H4 cells at 8 uM measured after 10 days in well containing 100 cells by microscopic analysis; assay type: functional, cell-based; settings: time 10.0 day
[15] = system: Hs 683; assay: Induction of apoptosis in human Hs 683 cells assessed as apoptotic cells at 2.5 uM incubated for 24 hrs by Annexin V-FITC/PI staining based flow cytometry analysis relative to control; assay type: functional
[16] = system: LN-229; assay: Inhibition of sphere formation in human LN-229 cells at 4 uM measured after 10 days in well containing 1 cells by microscopic analysis; assay type: functional, cell-based; settings: time 10.0 day
[17] = Drug concentration in male Sprague-Dawley rat lung at 45 mg/kg, po measured after 8 hrs by LC-MS/MS analysis; assay type: ADME, organism-based; settings: read-out: Ct
[18] = system: Hs 683; assay: Inhibition of sphere formation in human Hs 683 cells at 2 uM measured after 10 days in well containing 10 cells by microscopic analysis; assay type: functional, cell-based; settings: time 10.0 day
[19] = Toxicity in male C57BL/6 mouse assessed as change in cellular structure of heart at 45 mg/kg, po administered once a day for 2 weeks by H and E staining based analysis; assay type: organism-based; settings: in vivo, 336 h
[20] = system: MDR1; assay: Efflux ratio of apparent permeability across basolateral to apical side over apical to basolateral side in MDCKII-MDR1 cells at 1 uM incubated for 2 hrs by LC-MS/MS analysis; assay type: ADME, cell-based, Canis lupus familiaris; settings: dog, MDCK-MDR1
[21] = system: U-251; assay: Inhibition of sphere formation in human U-251MG cells at 2 uM measured after 10 days in well containing 10000 cells by microscopic analysis; assay type: functional, cell-based; settings: time 10.0 day
[22] = system: LN-229; assay: Inhibition of sphere formation in human LN-229 cells at 1 uM measured after 10 days in well containing 1000 cells by microscopic analysis; assay type: functional, cell-based; settings: time 10.0 day
[23] = system: LN-229; assay: Antitumor activity against human LN-229 cells xenografted in BALB/c nude mouse assessed as reduction in proportion of p-H3 positive cells at 15 to 45 mg/kg, po administered once a day and measured after 49 days by immunohistochemistry analysis; assay type: functional, organism-based; settings: dose 15-45 mg/kg, time 49.0 day
[24] = system: U-251; assay: Inhibition of sphere formation in human U-251MG cells at 8 uM measured after 10 days in well containing 10 cells by microscopic analysis; assay type: functional, cell-based; settings: time 10.0 day
[25] = system: H4; assay: Inhibition of sphere formation in human H4 cells at 4 uM measured after 10 days in well containing 10 cells by microscopic analysis; assay type: functional, cell-based; settings: time 10.0 day
[26] = system: H4; assay: Inhibition of sphere formation in human H4 cells at 2 uM measured after 10 days in well containing 100 cells by microscopic analysis; assay type: functional, cell-based; settings: time 10.0 day
[27] = system: Hs 683; assay: Inhibition of sphere formation in human Hs 683 cells at 1 uM measured after 10 days in well containing 1000 cells by microscopic analysis; assay type: functional, cell-based; settings: time 10.0 day
[28] = system: Hs 683; assay: Inhibition of sphere formation in human Hs 683 cells assessed as fold reduction in sphere initiating frequency at 2 uM incubated for 10 days by microscopic analysis relative to control; assay type: functional; settings: time 10 day
[29] = system: HeLa; assay: Antiproliferative activity against human HeLa cells assessed as inhibition of cell growth incubated for 72 hrs by CCK-8 assay; assay type: functional, cell-based
[30] = system: LN-229; assay: Inhibition of sphere formation in human LN-229 cells at 1 uM measured after 10 days in well containing 1 cells by microscopic analysis; assay type: functional, cell-based; settings: time 10.0 day
[31] = system: Hs 683; assay: Inhibition of sphere formation in human Hs 683 cells at 1 uM measured after 10 days in well containing 1 cells by microscopic analysis; assay type: functional, cell-based; settings: time 10.0 day
[32] = system: U-937; assay: Antiproliferative activity against human U-937 cells assessed as inhibition of cell growth incubated for 72 hrs by CCK-8 assay; assay type: functional, cell-based; settings: U-937, 72 h
[33] = system: H4; assay: Inhibition of sphere formation in human H4 cells at 8 uM measured after 10 days in well containing 10 cells by microscopic analysis; assay type: functional, cell-based; settings: time 10.0 day
[34] = Drug concentration in female Sprague-Dawley rat intestine at 45 mg/kg, po measured after 8 hrs by LC-MS/MS analysis; assay type: ADME, organism-based; settings: read-out: Ct
[35] = system: LN-229; assay: Inhibition of sphere formation in human LN-229 cells assessed as fold reduction in sphere initiating frequency at 1 uM incubated for 10 days by microscopic analysis relative to control; assay type: functional; settings: time 10 day
[36] = system: LN-229; assay: Inhibition of sphere formation in human LN-229 cells at 8 uM measured after 10 days in well containing 10 cells by microscopic analysis; assay type: functional, cell-based; settings: time 10.0 day
[37] = system: LN-229; assay: Inhibition of cell migration in human LN-229 cells assessed as reduction in wound closure ability measured after 24 to 48 hrs by wound healing assay; assay type: functional, cell-based; settings: dose 2.5-10 µM, time 24-48 hrs
[38] = system: U-251; assay: Inhibition of sphere formation in human U-251MG cells at 4 uM measured after 10 days in well containing 10 cells by microscopic analysis; assay type: functional, cell-based; settings: time 10.0 day
[39] = Toxicity in female C57BL/6 mouse assessed as change in cellular structure of intestine at 45 mg/kg, po administered once a day for 2 weeks by H and E staining based analysis; assay type: organism-based; settings: in vivo, 336 h

N#CC1(C(=O)NCCC2CCN(Cc3ccccc3)CC2)CC2(Br)c3ccccc3C1c1ccccc12 (racemic)
Activity [1]: Active
fold change (FC) [2]: 2.78
fold change (FC) [3]: 2.8
Activity [4]: Non-Toxic
inhibition [5]: Dose-Dependent Effect
inhibition [6]: inactive
inhibition [7]: inactive
inhibition [8]: Active
concentration at 8 h [9]: 1400 ng/g
inhibition at 5 µM [10]: 100%
IC50 [11]: 4.99 µM
inhibition [12]: Active
IC50 [13]: 2.1 µM
inhibition [14]: Active
Activity [15]: ~20%
inhibition [16]: Active
concentration at 8 h [17]: 2050 ng/g
inhibition [18]: Active
Activity [19]: Non-Toxic
efflux ratio at 2 h, 1 µM [20]: 3.25
inhibition [21]: inactive
inhibition [22]: inactive
Activity [23]: Active
inhibition [24]: Active
inhibition [25]: Active
inhibition [26]: Active
inhibition [27]: inactive
fold change (FC) [28]: 15.75
IC50 [29]: 8.13 µM
inhibition [30]: Active
inhibition [31]: Active
IC50 [32]: 14 µM
inhibition [33]: Active
concentration at 8 h [34]: 442 ng/g
fold change (FC) [35]: 4.37
inhibition [36]: Active
inhibition [37]: Dose-Dependent Effect
inhibition [38]: Active
Activity [39]: Non-Toxic

Source: ChEMBL document CHEMBL5528066, “Discovery of Novel N-(Anthracen-9-ylmethyl) Benzamide Derivatives as ZNF207 Inhibitors Promising in Treating Glioma” (J Med Chem, 2024)
